Test results: patent publication US20090305960A1, “Melanocortin Receptor-Specific Peptides for Treatment of Obesity / 669” (Palatin Technologies, Inc, priority 2008, published 2009)
pKi: −log10 of the molar value. Where a SMILES comes first, the peptide text is derived from it. Bridges are numbered along the chain shown (N, C = ends). [ ]: non-standard residue; d: D form. The star is where a group is joined. Orn = NCCC[C@H](N)C(=O)O; Bn = c1ccc(C*)cc1

Assays:
hMC4-R = target: T1, hMC4-R (Homo sapiens, UniProt P32245); experiment: Competitive binding assay using Eu-NDP-α-MSH, MC4-R
T1 construct: expressed in transfected cells; host or cells: HEK-293 (membrane homogenates)
Method: Competitive inhibition binding assays were performed using membrane homogenates prepared from HEK-293 cells that express recombinant hMC1-R, hMC3-R, hMC4-R, or hMC5-R. In the examples that follow, all MC1-R, MC3-R, MC4-R and MC5-R values are for human recombinant receptors. Assays were performed in 96 well GF/B Millipore multiscreen filtration plates (MAFB NOB10) pre-coated with 0.5% bovine serum albumin (Fraction V). Membrane homogenates were incubated with 0.1 nM [1^125]-NDP-α-MSH (Perkin Elmer) and increasing concentrations of test peptides of the present invention in buffer containing 25 mM HEPES buffer (pH 7.5) with 100 mM NaCl, 2 mM CaCl2, 2 mM MgCl2, 0.3 mM 1,10-phenanthroline, and 0.1% bovine serum albumin. After incubation for 90 minutes at 37° C., the assay mixture was filtered and the membranes washed with 1 mL of cold 1×PBS wash buffer per well. 35 μL of scintillation cocktail was added to each well and the plates counted on a Microbeta counter for 1 minute per well. Non-specific binding was measured by inhibition of binding of [I^125]-NDP-α-MSH in the presence of 1 μM NDP-α-MSH. Maximal specific binding (100%) was defined as the difference in radioactivity (cpm) bound to cell membranes in the absence and presence of 1 μM NDP-α-MSH. Radioactivity (cpm) obtained in the presence of test compounds was normalized with respect to 100% specific binding to determine the percent inhibition of [I^125]-NDP-α-MSH binding. Each assay was conducted in duplicate and actual mean values are described, with results less than 0% reported as 0%. Ki values for test peptides of the present invention were determined using Graph-Pad Prism® curve-fitting software.
Alternatively, a competitive inhibition binding assay was performed employing Eu-NDP-α-MSH (PerkinElmer Life Sciences catalog No. AD0225) with determination by time-resolved fluorometry (TRF) of the lanthanide chelate. In comparison studies with [I^125]-NDP-α-MSH, the same values, within experimental error ranges, were obtained for percent inhibition and Ki. Typically competition experiments to determine Ki values were conducted by incubating membrane homogenates prepared from HEK-293 cells that express recombinant hMC4-R with 9 different concentrations of test compounds of interest and 1 nM of Eu-NDP-α-MSH in a solution containing 25 mM HEPES buffer with 100 mM NaCl, 2 mM CaCl2, 2 mM MgCl2, 0.1% BSA, and 0.3 mM 1,10-phenanthroline. After incubation for 90 minutes at 37° C., the reaction was stopped by filtration over AcroWell 96-well filter plates (Pall Life Sciences). The filter plates were washed 4 times with 200 μL of ice-cold phosphate-buffered saline. DELFIA Enhancement solution (PerkinElmer Life Sciences) was added to each well. The plates were incubated on a shaker for 15 minutes and read at 340 nm excitation and 615 nm emission wavelengths. Each assay was conducted in duplicate and mean values were utilized. Ki values were determined by curve-fitting with Graph-Pad Prism® software using a one-site fixed-slope competition binding model.

hMC1-R = target: T2, hMC1-R (Homo sapiens, UniProt Q01726); experiment: Competitive binding assay, MC1-R; conditions: competitive studies using Eu-NDP-α-MSH / NDP-α-MSH
T2 construct: expressed in transfected cells; host or cells: HEK-293 (membrane homogenates)
Method: Competitive inhibition binding assays were performed using membrane homogenates prepared from HEK-293 cells that express recombinant hMC1-R, hMC3-R, hMC4-R, or hMC5-R. In the examples that follow, all MC1-R, MC3-R, MC4-R and MC5-R values are for human recombinant receptors. Assays were performed in 96 well GF/B Millipore multiscreen filtration plates (MAFB NOB10) pre-coated with 0.5% bovine serum albumin (Fraction V). […] 35 μL of scintillation cocktail was added to each well and the plates counted on a Microbeta counter for 1 minute per well. […] Maximal specific binding (100%) was defined as the difference in radioactivity (cpm) bound to cell membranes in the absence and presence of 1 μM NDP-α-MSH. […] Ki values for test peptides of the present invention were determined using Graph-Pad Prism® curve-fitting software.
Alternatively, a competitive inhibition binding assay was performed employing Eu-NDP-α-MSH (PerkinElmer Life Sciences catalog No. AD0225) with determination by time-resolved fluorometry (TRF) of the lanthanide chelate. […] The plates were incubated on a shaker for 15 minutes and read at 340 nm excitation and 615 nm emission wavelengths. […] Ki values were determined by curve-fitting with Graph-Pad Prism® software using a one-site fixed-slope competition binding model.

[1] = Food intake and body weight change in rats; assay type: in vivo, rat; conditions: for decrease in food consumption compared to control: rats
Method: Change in food intake and body weight was evaluated for selected peptides administered by intravenous (IV) or subcutaneous injection routes. Male Sprague-Dawley rats were obtained from Hilltop Lab Animals, Inc. (Scottsdale, Pa.) or other vendors. Animals were individually housed in conventional polystyrene hanging cages and maintained on a controlled 12 hour on/off light cycle. Water and pelleted food was provided ad libitum. The rats were dosed IV with vehicle or selected peptides (0.3 to 1.0 mg/kg), or dosed subcutaneously with vehicle or selected peptides (doses up to 30 mg/kg). The changes in body weight and food intake for the 24 hour period after dosing was determined. The changes in body weight and food intake for the 48 hour and 72 hour periods after dosing can also be measured to determine reversal of changes in body weight and food intake effects back to baseline levels.

[2] = Induction of penile erection in male rats; assay type: in vivo, rat; conditions: IV
Method: The ability of peptides of the present invention to induce penile erection (PE) in male rats were evaluated with selected peptides. Male Sprague-Dawley rats weighing 250-300 g were kept on a 12 hour on/off light cycle with food and water ad libitum. All behavioral studies were performed between 9 a.m. and 4 p.m. Groups of 6-8 rats were administered peptides at a variety of doses via an IV route. Immediately after treatment, rats were placed into individual polystyrene cages (27 cm long, 16 cm wide, and 25 cm high) for behavioral observation, typically by remote video monitoring. Rats are observed for one hour, and the number of yawns, grooming bouts and PEs are recorded in 10-minute bins.

[3] = rat feeding studies, overall finding in words

T1 sequence (P32245 whole entry): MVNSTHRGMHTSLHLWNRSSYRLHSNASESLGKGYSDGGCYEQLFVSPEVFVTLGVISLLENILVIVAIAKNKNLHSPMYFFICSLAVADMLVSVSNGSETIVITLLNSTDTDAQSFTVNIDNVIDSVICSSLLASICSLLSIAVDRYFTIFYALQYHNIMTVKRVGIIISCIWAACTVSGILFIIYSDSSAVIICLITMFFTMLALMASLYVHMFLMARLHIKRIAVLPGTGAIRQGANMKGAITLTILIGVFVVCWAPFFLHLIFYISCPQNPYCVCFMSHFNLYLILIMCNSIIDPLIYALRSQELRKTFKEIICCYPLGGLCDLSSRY
T2 sequence (Q01726 whole entry): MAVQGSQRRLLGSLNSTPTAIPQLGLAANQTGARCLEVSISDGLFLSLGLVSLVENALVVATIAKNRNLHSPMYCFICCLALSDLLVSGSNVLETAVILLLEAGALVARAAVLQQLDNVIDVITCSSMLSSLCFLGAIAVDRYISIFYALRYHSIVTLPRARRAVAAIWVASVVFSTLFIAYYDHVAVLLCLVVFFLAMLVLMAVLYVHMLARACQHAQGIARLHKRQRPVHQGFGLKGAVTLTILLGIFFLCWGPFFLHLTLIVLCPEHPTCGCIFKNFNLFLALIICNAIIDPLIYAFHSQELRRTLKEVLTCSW

- pKi (hMC4-R; competitive studies using Eu-NDP-α-MSH / NDP-α-MSH, average of several studies, read-out: Ki value at MC4-R): 8.05
- selectivity for MC4-R (binding against MC1-R, MC3-R and MC4-R) (hMC4-R; in words): highly selective for MC4-R
- pKi (hMC1-R): 5.69
SMILES: CC(=O)N[C@@H](CCCNC(=N)N)C(=O)N[C@H]1CCCNC(=O)CC[C@@H](C(=O)O)NC(=O)[C@H](Cc2c[nH]c3ccccc23)NC(=O)[C@H](CCCNC(=N)N)NC(=O)[C@@H](Cc2ccccc2)NC(=O)[C@H](COCc2ccccc2)NC1=O [Compound 7, Ac-Arg-cyclo(Orn-Ser(Bzl)-D-Phe-Arg-Trp-Glu)-OH] (Ac-R[Orn]S(Bn)[dF]RWE-OH; lactam 2-7)
- food intake [1, 3]: reduce food intake
- rate of change in body weight [1, 3]: decrease the rate of change in body weight
- decrease in food consumption compared to control ([1]; 0.3 mg/kg, 0-2 hour period): statistically significant
- decrease in food consumption compared to control ([1]; 0.3 mg/kg, 0-4 hour period): statistically significant
- decrease in food consumption compared to control ([1]; 0.3 mg/kg, 0-20 hour period): statistically significant
- decrease in food consumption compared to control ([1]; 1 mg/kg, 0-4 hour period): statistically significant
- decrease in food consumption compared to control ([1]; 1 mg/kg, 0-20 hour period): statistically significant
- decrease in food consumption compared to control ([1]; 1 mg/kg, 4-20 hour period): statistically significant
- average spontaneous erections per rat in one hour ([2]; 1 mg/kg): 1.429±0.69 spontaneous erections per rat in one hour
- increase in observed spontaneous erections ([2]; in words): not found to result in a statistically significant increase
